By melting point is commonly meant the temperature, or range, at which the solid turns liquid.

On to `Cc1ccnc(NCCCCC(=O)NNC(=O)N2CCc3ccccc3C2CC(=O)O)c1` (stereo not shown) [Example 4], for which the melting point was 103 to 109 °C.

These data come from US7060707B2, “Isoquinoline derivatives” (Merck Patent GmbH, priority 2002, dated 2006).
